Data as given in US6716829B2, “Aldosterone antagonist and cyclooxygenase-2 inhibitor combination therapy to prevent or treat inflammation-related cardiovascular disorders” (Pharmacia Corporation, priority 2000, dated 2004).
Several values for one entry are separate records, joined by “and”; a condition that tells them apart may be missing. Identical values can stand only once. Entries after “also recorded” stand apart in the source; their conditions may differ.

Test system: aldosterone + salt treated uninephrectomized rats
Test: Assay C, further aldosterone infusion study: radiotelemetrized arterial (systolic) blood pressure
Assay type: in vivo, Male Sprague-Dawley rats
Conditions: for Systolic Blood Pressure (mmHg): mean ± SEM of values every 5 min over 24-hour period
Procedure: Assay C: Further In Vivo Aldosterone Infusion Study
The procedure of Assay B was expanded upon in a further study. […] Myocardial tissue from animals in each treatment group was examined after 7, 14, or 30 days of treatment.
Male Sprague-Dawley rats, weighing 230 to 250 g, (Harlan Sprague-Dawley Industries, Indianapolis, IN) were housed in a room 12-hours light/12-hours dark daily cycle at an ambient temperature of 22±1° C. (n=96). Animals were allowed one week to adjust after arrival and had free access to TEKLAD 22/5 rodent diet (Harlan TEKLAD, Madison, Wis.) and tap water until the initiation of the experiment.
Potassium chloride supplementation was added to the saline solution in order to prevent the potential hypokalemia associated with aldosterone excess.
At the time of the surgery, an Alzet 2002 osmotic minipump (Alza Corp., Palo Alto, Calif.) containing either vehicle (9% ethanol/87% propylene glycol/4% dH2O) or 1.0 mg/mL d-aldosterone (Sigma Chemical, St. Louis, Mo.) was inserted subcutaneously at the nape of the neck. Aldosterone was administered at a dose of 0.75 µg/hour. […] Animals were sacrificed from each group (n=8-13) after 7, 14, or 30 days of treatment.
Animals to be sacrificed after 7 or 14 days of treatment were uninephrectomized and implanted with an Alzet minipump. Animals treated for 30 days were uninephrectomized, fitted for Alzet minipumps, and implanted with radio telemetry units (model #TA11PA-C40, Data Sciences Inc., St. Paul, Minn.) according to the following procedure. Animals were anesthetized with 5% isoflurane (SOLVAY Animal Health Inc., Mendota Heights, Minn.), which was delivered in O2 using a VMS anesthesia instrument (Matrix Medical, Inc., Orchard Park, N.Y.). Anesthesia was maintained with 1-2% isoflurane throughout the surgical procedure. The surgery site was clipped, scrubbed with nolvasan, and sprayed with betadine. A rostral-caudal incision was made through the skin from the base of the rib cage to the pubic region using a #11 scalpel blade. A second incision was made through the muscles of the abdominal wall to expose the peritoneal cavity. The […], renal artery and vein of the left kidney were isolated, tied off with 4-0 silk, and the kidney excised and discarded. Organs were carefully displaced with tissue retractors in order to expose the abdominal aorta. A 1.5 cm segment just rostral to the bifurcation of the abdominal aorta into the iliac arteries was cleared of excessive connective tissue and 4-0 silk was used to make an anchor adjacent to the aorta. A microvascular clip was then placed at both ends of the cleaned region to stop excessive blood flow. Using a bent, 21 gauge needle, the abdominal aorta was penetrated. The cannula of the radio telemetry unit was inserted and stabilized in the aorta using the 4-0 silk anchor. Organs were repositioned and the telemetry unit was placed over the organs. Using a non-interrupted suture pattern with 4-0 silk, the abdominal wall was closed, and the skin was subsequently closed using a 4-0 silk in an interrupted suture pattern. Animals were injected around the sutures with 100 μL of the anesthetic Marcaine HCl (Sanofi Winthrop Pharmaceuticals, New York, N.Y.) and given an injection (i.m.) of the antibiotic Mandol (Eli Lilly & Co., Indianapolis, Ind.). Post-operative care included monitoring the animals on a heating pad during recovery from anesthesia until sternal recumbency was reestablished. Animals were monitored daily for signs of distress and infection at the surgical site. Animals displaying continued discomfort after surgery were treated with 0.1-0.5 mg/kg, s.c. Buphrenorphine (Rickett & Colman Pharmaceuticals, Inc. Richmond, Va.). Animals were then placed on tap water and TEKLAD 22/5 rodent diet (Harlan TEKLAD, Madison, Wis.).
Radiotelemetrized arterial blood pressure was calculated with the […]

## C[C@]12CCC(=O)C=C1CC[C@@H]1[C@@H]2[C@@H](O)C[C@]2(C=O)[C@@H](C(=O)CO)CC[C@@H]12 [Aldosterone]
Day 3, individual rats, 30-day protocol, listed as Aldosterone + salt
  Systolic Blood Pressure: 116 mmHg and 152 mmHg and 115 mmHg and 127 mmHg and 143 mmHg and 122 mmHg and 124 mmHg and 159 mmHg
Day 3
  Systolic Blood Pressure (mmHg): 132 ± 6 mmHg
Day 4, individual rats, 30-day protocol, listed as Aldosterone + salt
  Systolic Blood Pressure: 120 mmHg and 149 mmHg and 122 mmHg and 134 mmHg and 129 mmHg and 135 mmHg and 125 mmHg and 152 mmHg
Day 4
  Systolic Blood Pressure (mmHg): 133 ± 4 mmHg
Day 5, individual rats, 30-day protocol, listed as Aldosterone + salt
  Systolic Blood Pressure: 126 mmHg and 158 mmHg and 124 mmHg and 142 mmHg and 129 mmHg and 137 mmHg and 128 mmHg and 151 mmHg
Day 5
  Systolic Blood Pressure (mmHg): 137 ± 4 mmHg
Day 6, individual rats, 30-day protocol, listed as Aldosterone + salt
  Systolic Blood Pressure: 132 mmHg and 170 mmHg and 136 mmHg and 157 mmHg and 144 mmHg and 149 mmHg and 135 mmHg and 158 mmHg
Day 6
  Systolic Blood Pressure (mmHg): 148 ± 5 mmHg
Day 7, individual rats, 30-day protocol, listed as Aldosterone + salt
  Systolic Blood Pressure: 140 mmHg and 179 mmHg and 139 mmHg and 165 mmHg (2×) and 153 mmHg and 154 mmHg and 145 mmHg
Day 7
  Systolic Blood Pressure (mmHg): 155 ± 5 mmHg
Day 8, individual rats, 30-day protocol, listed as Aldosterone + salt
  Systolic Blood Pressure: 145 mmHg and 182 mmHg and 143 mmHg and 160 mmHg and 158 mmHg and 154 mmHg and 146 mmHg and 163 mmHg
Day 8
  Systolic Blood Pressure (mmHg): 156 ± 4 mmHg
Day 9, individual rats, 30-day protocol, listed as Aldosterone + salt
  Systolic Blood Pressure: 150 mmHg and 191 mmHg and 148 mmHg and 172 mmHg (2×) and 159 mmHg and 151 mmHg and 169 mmHg
Day 9
  Systolic Blood Pressure (mmHg): 164 ± 5 mmHg
Day 10, individual rats, 30-day protocol, listed as Aldosterone + salt
  Systolic Blood Pressure: 156 mmHg and 196 mmHg and 149 mmHg and 175 mmHg (2×) and 165 mmHg and 151 mmHg and 172 mmHg
Day 10
  Systolic Blood Pressure (mmHg): 168 ± 6 mmHg
Day 11, individual rats, 30-day protocol, listed as Aldosterone + salt
  Systolic Blood Pressure: 154 mmHg and 201 mmHg and 155 mmHg (2×) and 178 mmHg and 181 mmHg and 163 mmHg and 175 mmHg
Day 11
  Systolic Blood Pressure (mmHg): 171 ± 6 mmHg
Day 12, individual rats, 30-day protocol, listed as Aldosterone + salt
  Systolic Blood Pressure: 159 mmHg and 207 mmHg and 161 mmHg and 190 mmHg (2×) and 186 mmHg and 170 mmHg and 163 mmHg
Day 12
  Systolic Blood Pressure (mmHg): 178 ± 6 mmHg
Day 13, individual rats, 30-day protocol, listed as Aldosterone + salt
  Systolic Blood Pressure: 161 mmHg and 210 mmHg and 166 mmHg (2×) and 196 mmHg and 191 mmHg and 172 mmHg and 194 mmHg
Day 13
  Systolic Blood Pressure (mmHg): 182 ± 6 mmHg
Day 14, individual rats, 30-day protocol, listed as Aldosterone + salt
  Systolic Blood Pressure: 164 mmHg and 208 mmHg and 170 mmHg and 204 mmHg and 192 mmHg (2×) and 181 mmHg and 159 mmHg and 172 mmHg
Day 14
  Systolic Blood Pressure (mmHg): 182 ± 6 mmHg
Day 15, individual rats, 30-day protocol, listed as Aldosterone + salt
  Systolic Blood Pressure: 171 mmHg
Day 15
  Systolic Blood Pressure (mmHg): 181 ± 5 mmHg
Day 16
  Systolic Blood Pressure (mmHg): 187 ± 6 mmHg
Day 17
  Systolic Blood Pressure (mmHg): 195 ± 7 mmHg
Day 18
  Systolic Blood Pressure (mmHg): 196 ± 6 mmHg
Day 19
  Systolic Blood Pressure (mmHg): 200 ± 6 mmHg
Day 20
  Systolic Blood Pressure (mmHg): 203 ± 5 mmHg
Day 21
  Systolic Blood Pressure (mmHg): 208 ± 4 mmHg
Day 22
  Systolic Blood Pressure (mmHg): 209 ± 4 mmHg
Day 23
  Systolic Blood Pressure (mmHg): 208 ± 4 mmHg
Day 24
  Systolic Blood Pressure (mmHg): 210 ± 3 mmHg
Day 25
  Systolic Blood Pressure (mmHg): 210 ± 4 mmHg
Day 26
  Systolic Blood Pressure (mmHg): 210 ± 3 mmHg
Aldosterone + salt, uninephrectomized rats, up to 30 days, eplerenone 100 mg/kg/day
  Systolic Blood Pressure: induced severe hypertension; also recorded: progressive increase in blood pressure with time
